Experimental data: patent US20070048372A1, “Method for treating non-inflammatory osteoarthritic pain” (SRZ Properties, Inc., priority 2005, published 2007)
“Also recorded” adds a separate entry of the source.

How the values were obtained:
[1] = tested on: rat formalin paw test (late phase); test: Rat formalin paw test (late phase): number of flinches and licking time; format: in vivo, rat (Rj: Wistar (Han)); conditions: Example 7
Experimental: Rats were given an intraplantar injection of 5% formalin (50 μl) into the posterior left paw. This treatment induces a recognizable flinching and licking response of the affected paw in control animals. The number of flinches was counted for 15 minutes, beginning 20 minutes after injection of formalin. The time spent licking the affected paw was also recorded.
Male Rj: Wistar (Han) rats, 10 per group, weighing 100-130 g at the beginning of the experiments were studied per group. The test was performed blind.
Lacosamide (20 mg/kg), gabapentin (50 and 100 mg/kg), combinations of lacosamide (20 mg/kg) with gabapentin (50 and 100 mg/kg), and vehicle were administered i.p. 10 minutes before injection of formalin.
Lacosamide (10 and 20 mg/kg), morphine (2 and 4 mg/kg), combinations of lacosamide (10 and 20 mg/kg) with morphine (2 and 4 mg/kg), and vehicle were administered i.p. 10 minutes before injection of formalin.
Lacosamide (10 mg/kg), duloxetine (8 mg/kg), a combination of lacosamide (10 mg/kg) with duloxetine (8 mg/kg), and vehicle were administered i.p. 10 minutes before injection of formalin.
Lacosamide (10 and 20 mg/kg), memantine (4 and 8 mg/kg), combinations of lacosamide (10 and 20 mg/kg) with memantine (4 and 8 mg/kg), and vehicle were administered i.p. 10 minutes before injection of formalin.
Lacosamide (10 and 20 mg/kg), naproxen (8 and 16 mg/kg), combinations of lacosamide (10 and 20 mg/kg) with […] (8 and 16 mg/kg), and vehicle were administered i.p. 10 minutes before injection of formalin. Morphine (8 mg/kg) was included as a comparative treatment.

[2] = tested on: monosodium iodoacetate-induced tactile allodynia; test: Monosodium iodoacetate-induced tactile allodynia (von Frey filaments); format: in vivo, rat (Wistar); conditions: 30 mg/kg s.c., 60 minutes before test
[3] = tested on: monosodium iodoacetate-induced mechanical hyperalgesia; test: Monosodium iodoacetate-induced mechanical hyperalgesia (Randall-Selitto paw pressure); format: in vivo, rat (Wistar); conditions: 30 mg/kg s.c.
[4] = tested on: muscle pressure hyperalgesia induced by TNF; test: TNF-induced muscle pressure hyperalgesia (Randall-Selitto, withdrawal threshold to muscle pressure); format: in vivo, rat (Sprague Dawley); conditions: for reversal of muscular mechanical hyperalgesia (withdrawal threshold to muscle pressure): 18 h after TNF i.m., 30 to 60 minutes after drug
Experimental: (§1) Adult male Sprague Dawley rats with a body weight of 250 g to 300 g were used (supplier: Charles River, Sulzfeld, Germany). Animals were group-housed (3 animals per cage) and maintained in a room with controlled temperature (21-22° C.) and a reversed light-dark cycle (12 h/12 h) with food and water available ad libitum. All experiments were approved by the Bavarian State animal experimentation committee and carried out in accordance with its regulations.
(§2) Recombinant rat tumor necrosis factor alpha (herein referred to as TNF) was obtained from R&D Systems, Minneapolis, Minn., U.S.A. TNF was diluted in 0.9% NaCl and used in a concentration of 1 μg in 50 μl. Injections were performed in short halothane narcosis with a 30 g needle bilaterally into the gastrocnemius or into the biceps brachii muscle. All rats were used to the behavioral tests before injections and baseline values were recorded over three test days.
Mechanical withdrawal thresholds to muscle pressure were measured with an analgesimeter (Ugo Basile, Comerio, Italy). The rat was allowed to crawl into a sock which helps the rat to relax. The hind limbs were positioned such that an increasing pressure could be applied onto the gastrocnemius muscle (maximum 250 g). The pressure needed to elicit withdrawal was recorded. Means of 3 trials for each hind limb were calculated (interstimulus interval of >30 sec). Only animals with a significant TNF effect were included for further analysis.
Rats were injected with TNF into the gastrocnemius muscle at 2 pm. Eighteen hours later, rats were tested for pressure hyperalgesia pre- and post-administration of the test drug. Rats were tested for pressure hyperalgesia 30 to 60 minutes after drug administration.
(§3) The rats, initially 10 per group, were treated with either 3, 10 or 30 mg/kg lacosamide, 2 mg/kg metamizol, 30 or 100 mg/kg pregabalin, 100 mg/kg gabapentin, or the NaCl vehicle, i.p. (intraperitoneally). Volume of i.p. injections was 0.5 ml. A pilot study was performed to confirm that i.m. (intramuscular) injection of 1 μg TNF into the gastrocnemius muscle was sufficient to induce pressure hyperalgesia.
(§4) Data are shown in graphs displaying means and standard errors of the means (SEM). Pre- and post-treatment data were compared using ANOVA (analysis of variance) and a Tukey post hoc test. Means of treatment groups were compared using a one-way ANOVA and Dunnett's post hoc test. Maximal possible effects (MPE) were calculated for all types of treatment.

[5] = tested on: biceps muscle grip strength after TNF-induced muscle pain; test: Biceps muscle grip strength after TNF-induced muscle pain; format: in vivo, rat (Sprague Dawley); conditions: for reversal of TNF-induced reduction of grip strength: 6 h after TNF i.m., 30 to 60 minutes after drug
Experimental: as §1, §2
Grip strength of the forelimbs was tested with a digital grip force meter (DFIS series, Chatillon, Greensboro, NC, U.S.A.). The rat was positioned to grab the grid with the forelimbs and was gently pulled so that the grip strength could be recorded. Means of three trials were calculated. The effect of the TNF treatment was calculated for each animal separately and only animals with a significant TNF effect were included for further analysis.
Rats were injected with TNF into the biceps brachii muscle at 8 am. Six hours later, grip strength of the forelimbs was tested with a digital grip force meter. Test drug was administered, and grip strength was again tested after 30 to 60 minutes.
as §3, §4

In the case of `COc1ccc2cc([C@H](C)C(=O)O)ccc2c1` [Naproxen], the “Licking time % change (a) compared with vehicle control” value ([1]; 8 mg/kg i.p. alone) is reported as “+16% (a)”, the “Licking time (seconds) mean ± SEM” value ([1]; 8 mg/kg i.p. alone) is reported as 222.1 ± 21.1 NS (a) seconds and the “No. of flinches % change (a) compared with vehicle control” value ([1]; 8 mg/kg i.p. alone) is reported as “+30% (a)”. The “No. of flinches mean ± SEM” value ([1]; 8 mg/kg i.p. alone) was 148.0 ± 35.5 NS (a), the “Licking time % change (a) compared with vehicle control” value ([1]; 16 mg/kg i.p. alone) was −1% (a) and the “Licking time (seconds) mean ± SEM” value ([1]; 16 mg/kg i.p. alone) was 190.1 ± 25.4 NS (a) seconds. For the same compound, the “No. of flinches % change (a) compared with vehicle control” value ([1]; 16 mg/kg i.p. alone) was “+2% (a)”, the “No. of flinches mean ± SEM” value ([1]; 16 mg/kg i.p. alone) was 116.6 ± 20.7 NS (a) and the “effect on the number of flinches or the time spent licking as compared with vehicle controls” value ([1]; 8 and 16 mg/kg i.p. alone) was “did not clearly affect”.
With `O=C(O)Cc1ccccc1Nc1c(Cl)cccc1Cl` [diclofenac] the “tactile allodynia of iodoacetate-treated rats (von Frey)” value (from here on “tactile allodynia”) ([2]; day 3) was “had no effect”, the “tactile allodynia” value ([2]; day 7) was “had no effect” and the “tactile allodynia” value ([2]; day 14) was “had no effect”. The “paw pressure withdrawal threshold compared to iodoacetate/vehicle treated animals (mechanical hyperalgesia)” value ([3]; day 3) was “increase in paw pressure withdrawal threshold” and the “mechanical hyperalgesia (paw pressure withdrawal threshold)” value ([3]; day 7) was “reduced mechanical hyperalgesia”.
In the case of `Cc1c(N(C)CS(=O)(=O)[O-])c(=O)n(-c2ccccc2)n1C.[Na+]` [metamizol], the “MPE (maximal possible effect) on muscle pressure hyperalgesia, compared with vehicle” value ([4]; 2 mg/kg i.p.) is reported as “significantly different from vehicle”, the “reversal of muscular mechanical hyperalgesia (withdrawal threshold to muscle pressure)” value ([4]; 2 mg/kg i.p.) is reported as “complete reversal” and the “MPE (maximal possible effect) on biceps muscle grip strength, compared with vehicle” value ([5]; 2 mg/kg i.p.) is reported as “significantly different from vehicle”. For the same compound, the “reversal of TNF-induced reduction of grip strength” value ([5]; 2 mg/kg i.p.) was “significant reversal”.
For `CC(C)C[C@H](CN)CC(=O)O` [pregabalin], the “MPE (maximal possible effect) on muscle pressure hyperalgesia, compared with vehicle” value ([4]; 30 mg/kg i.p.) was “significantly different from vehicle”, the “reversal of muscular mechanical hyperalgesia (withdrawal threshold to muscle pressure)” value ([4]; 30 mg/kg i.p.) was “significant reversal” and the “MPE (maximal possible effect) on muscle pressure hyperalgesia, compared with vehicle” value ([4]; 100 mg/kg i.p.) was “significantly different from vehicle”. The “reversal of muscular mechanical hyperalgesia (withdrawal threshold to muscle pressure)” value ([4]; 100 mg/kg i.p.) was “significant reversal”, the “full reversal of the muscle hyperalgesia” value ([4]; doses tested: pregabalin 30 and 100 mg/kg, gabapentin 100 mg/kg i.p.) was “Neither pregabalin nor gabapentin led to a full reversal” and the “MPE (maximal possible effect) on biceps muscle grip strength, compared with vehicle” value ([5]; 100 mg/kg i.p.) was “significantly different from vehicle”. The “reversal of TNF-induced reduction of grip strength” value ([5]; 100 mg/kg i.p.) was “significant reversal; also recorded: improved grip strength”.
